The text below walks through data of patent US20020137929A1, “1 - (3-heterocyclylphenyl) isothiourea, -isourea, -guanidine and -amidine herbicidal agents” (Intellectual Property Department, BASF Aktiengesellschaft, priority 1998, published 2002).

Series [1] has as its system ORYSAT (Rice, Tebonnet). Nature of the series: Rice tolerance to post-transplant applications, flooded paddy conditions (Table IV). The series is classed as in vivo, Oryza sativa, (L.) Tebonnet. From the text:
(§1) Results of herbicide evaluation are expressed on a rating scale (0-9). The scale is based upon a visual observation of plant stand, vigor, malformation, size, chlorosis and overall plant appearance as compared with a control.
Plastic containers containing weeds which are 3 to 5 cm tall and rice seedlings at the 1.5 to 2.5 leaf stage are flooded with water. The water is maintained at 1.5 to 3 cm above the soil surface for the duration of the experiment. Test compounds are applied as aqueous/ acetone mixtures 50/50 v/v directly into the flood water to provide the equivalent of about 0.0313 to 0.500 kg/ha of active ingredient. The treated containers are placed on greenhouse benches and cared for in accordance with conventional greenhouse procedures. Three to four weeks after treatment, the test is terminated and each container is examined and herbicidal effect rated according to the rating system provided in Example 37. The compounds evaluated are reported by compound number given in Example 37.

For series [2], the system named is CHEAL (Lambsquarters, Common). Nature of the series: Preemergence herbicidal evaluation. The class given is in vivo, Chenopodium album. The following applies: rated 4-5 weeks after treatment; for CHEAL rating: preemergence, 0-9 scale. A digest of the protocol:
(§2)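 Scores (0–9) reflect visual comparison with control plants for stand, vigor, malformation, size and chlorosis. Compound was applied to the soil after sowing, before emergence, as an aqueous acetone spray (about 0.0156–0.500 kg/ha), and cups were kept in a greenhouse for 4–5 weeks.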

The test system of series [3] is ORYSAT (Rice, Tebonnet). Nature of the series: Preemergence herbicidal evaluation. The following applies: rated 4-5 weeks after treatment; for ORYSAT rating: preemergence, 0-9 scale. The class given is in vivo, Oryza sativa, (L.) Tebonnet. A digest of the protocol:
as §2

Series [4] has as its system CYPSE (Flatsedge). Nature of the series: Preemergence weed control under flooded paddy conditions. Particulars: rated 3-4 weeks after treatment. The class given is in vivo, Cyperus serotinus. A digest of the protocol:
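Herbicidal effect is scored visually on a 0-9 scale against an untreated control, three to four weeks after compounds are pipetted into the flood water (1.5 to 3 cm deep) over seeds planted in silt loam at 0.5 cm depth. Rates: about 0.0313 to 0.500 kg/ha.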

The subject of series [5] is ECHORC (Watergrass (Calif.)). The description is as above. The series is classed as in vivo, Echinochloa oryzoides. Particulars: rated 3-4 weeks after treatment. A digest of the protocol:
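Silt loam, seeds in top 0.5 cm; flood held 1.5-3 cm; test cpd as acetone/water 50/50 into flood water, ~0.0313-0.500 kg/ha a.i.; greenhouse 3-4 wk; visual 0-9 score vs control.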

In series [6] the test system is ORYSAT (Rice, Tebonnet). Nature of the series: Rice tolerance to post-transplant applications, flooded paddy conditions (Table III). The class given is in vivo, Oryza sativa, (L.) Tebonnet. The method, then:
as §1
The tolerance of transplanted rice to post-transplanted herbicide applications is determined as follows: two ten-day-old rice seedlings (cv. Tebonnet) are transplanted into silt loam soil in 32 oz. plastic containers with a diameter of 10.5 cm and no drainage holes. After transplanting, the containers are flooded and the water level is maintained at 1.5 to 3 cm above the soil surface. Three days after transplanting, the flooded soil surface of the containers is treated with the selected aqueous/acetone 50/50 v/v mixture containing the test compounds to provide the equivalent of about 0.0313 to 0.500 kg/ha of active ingredient. The treated containers are placed on greenhouse benches, watered such that the water level is maintained as stated above, and cared for in accordance with conventional greenhouse procedures. Three to four weeks after treatment, the test is terminated and each container is examined and herbicidal effect rated according to the rating system provided in Example 37. The compounds evaluated are reported by compound number given in Example 37.
Plant species employed in this example are reported by header abbreviation, common name and scientific name.

Series [7] relates to ECHCG (Barnyardgrass). Nature of the series: Postemergence herbicidal evaluation. The following applies: for herbicidal rating ECHCG / ECHCG herbicidal rating: postemergence. The series is classed as in vivo, Echinochloa crus-galli. A digest of the protocol: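 Two-week seedlings sprayed postemergence at 40 psi; formulation: 1:1 acetone/water, 0.5% TWEEN 20; application ≈0.0156–0.500 kg/ha. Greenhouse grow-out, then 0–9 visual scoring at 4–5 weeks.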

The mark [8] stands for this setting: rate 0.0313 kg/ha, rating scale 0-9.
Where [9] appears, read: rate 0.0625 kg/ha, rating scale 0-9.
The mark [10] stands for this setting: rate 0.1250 kg/ha, rating scale 0-9.
Where [11] appears, read: rate 0.2500 kg/ha, rating scale 0-9.

Regarding `CCOP(=O)(CN1C(=O)CSC1=Nc1cc(-n2c(=O)cc(C(F)(F)F)n(C)c2=O)c(F)cc1Cl)OCC` [Compound 35, Diethyl {{2-{{2-chloro-5-[3,6-dihydro-3-methyl-2,6-dioxo-4-(trifluoromethyl)-1(2H)-pyrimidinyl]-4-fluorophenyl}imino}-4-oxo-3-thiazolidinyl}methyl}phosphonate], the “Herbicidal rating ORYSAT (rice tolerance)” value in series [1] (rate 0.1250 kg/ha, flooded paddy, post-transplant rice, 3-4 weeks after treatment) is 2.0; in series [1] (rate 0.2500 kg/ha, flooded paddy, post-transplant rice, 3-4 weeks after treatment), 3.0; in series [6] (0.1250 kg/ha, post-transplant rice, flooded paddy, rated 3-4 weeks after treatment) it was 2.0; in series [6] (0.2500 kg/ha, post-transplant rice, flooded paddy, rated 3-4 weeks after treatment), 3.0. Besides, the “Preemergence herbicidal rating CHEAL” value in series [2] (rate 0.0625 kg/ha), in series [2] (rate 0.1250 kg/ha) and in series [2] (rate 0.2500 kg/ha) was 9.0 throughout. Also, the “Preemergence herbicidal rating ORYSAT” value in series [3] (rate 0.0625 kg/ha), in series [3] (rate 0.1250 kg/ha) and in series [3] (rate 0.2500 kg/ha) was 0.0 throughout. The “Herbicidal rating CYPSE” value in series [4] (0.1250 kg/ha) and in series [4] (0.2500 kg/ha) was 0.0 in each case. Further, the “Herbicidal rating ECHORC” value in series [5] (0.1250 kg/ha) is recorded as 3.0; in series [5] (0.2500 kg/ha) it was 6.0. Further, the “Postemergence herbicidal rating ECHCG” value in series [7] (Rate 0.0158 kg/ha) came out at 0.0; in series [7] (Rate 0.0315 kg/ha), 0.0; in series [7] (Rate 0.0630 kg/ha), 1.0.
Take `CCOC(=O)CCN1C(=O)CSC1=Nc1cc(-n2c(=O)cc(C(F)(F)F)n(C)c2=O)c(Cl)cc1Cl` [Compound 32, Ethyl 2-{{2,4-dichloro-5-[3,6-dihydro-3-methyl-2,6-dioxo-4-(trifluoromethyl)-1(2H)-pyrimidinyl]-phenyl}imino}-4-oxo-3-thiazolidinepropionate]: the “Herbicidal rating ORYSAT (rice tolerance)” value in series [1] (in vivo) and in series [6] (in vivo) was 0.0 in each case. In addition, the “Preemergence herbicidal rating CHEAL” value in series [2] (rate 0.0156 kg/ha) was found to be 4.5; in series [2] (rate 0.0313 kg/ha) it was 4.5; in series [2] (rate 0.0625 kg/ha), 9.0; in series [2] (rate 0.1250 kg/ha), 9.0; in series [2] (rate 0.2500 kg/ha) it was 9.0; in series [2] (rate 0.5000 kg/ha), 9.0. The “Preemergence herbicidal rating ORYSAT” value in series [3] (rate 0.0156 kg/ha) came out at 0.0; in series [3] (rate 0.0313 kg/ha), 0.0; in series [3] (rate 0.0625 kg/ha) it was 0.0; in series [3] (rate 0.1250 kg/ha) it was 0.0; in series [3] (rate 0.2500 kg/ha) it was 1.5; in series [3] (rate 0.5000 kg/ha), 4.0. The “Herbicidal rating CYPSE” value in series [4] (0.1250 kg/ha) and in series [4] (0.2500 kg/ha) was 0.0 in each case. For the same compound, the entries for the “Herbicidal rating ECHORC” value in series [5] (0.1250 kg/ha) and in series [5] (0.2500 kg/ha) were 3.0 and 6.0, respectively. Also, the “Postemergence herbicidal rating ECHCG” value in series [7] (Rate 0.0158 kg/ha) was found to be 0.0; in series [7] (Rate 0.0313 kg/ha) it was 0.0; in series [7] (Rate 0.0625 kg/ha) it was 0.0; in series [7] (Rate 0.1250 kg/ha), 2.0.
As for `Cn1c(C(F)(F)F)cc(=O)n(-c2cc(N=C3SCC(=O)N3Cc3ccc(Br)cc3)c(Cl)cc2F)c1=O` [Compound 148, 3-{5-{[3-(p-Bromobenzyl)-4-oxo-2-thiazolidinyl-idene]amino}-4-chloro-2-fluorophenyl}-1-methyl-6-(trifluoromethyl)-2,4(1H,3H)-pyrimidinedione], the “Preemergence herbicidal rating CHEAL” value in series [2] (setting [8]) was 6.0; in series [2] (setting [9]), 9.0; in series [2] (setting [10]) it was 9.0; in series [2] (setting [11]), 9.0. Further, the “Preemergence herbicidal rating ORYSAT” value in series [3] (setting [8]), in series [3] (setting [9]), in series [3] (setting [10]) and in series [3] (setting [11]) was 0.0 throughout. The “herbicidal effect rating, CYPSE” value is given as 0.0 in series [4] (0.0313 kg/ha), 0.0 in series [4] (0.1250 kg/ha) and 5.0 in series [4] (0.2500 kg/ha). The “herbicidal effect rating, ECHORC” value in series [5] (0.0313 kg/ha) worked out at 6.0; in series [5] (0.0625 kg/ha) it was 7.0; in series [5] (0.1250 kg/ha), 9.0; in series [5] (0.2500 kg/ha) it was 9.0. Also, the “herbicidal effect rating, ORYSAT (rice tolerance)” value in series [6] (in vivo) is given as 0.0. Moreover, the “herbicidal rating ECHCG” value in series [7] (rate 0.0156 kg/ha) is 2.0; in series [7] (rate 0.0313 kg/ha) it was 3.0; in series [7] (rate 0.0625 kg/ha) it was 3.0.
For `COC(=O)C1(N2C(=O)CSC2=Nc2cc(-n3c(=O)cc(C(F)(F)F)n(C)c3=O)c(F)cc2Cl)CCCCC1` [Compound 81, Methyl 1-{2-{{2-chloro-5-[3,6-dihydro-3-methyl-2,6-dioxo-4-(trifluoromethyl)-1(2H)-pyrimidinyl]-4-fluorophenyl}imino}-4-oxo-3-thiazolidinyl}-cyclohexanecarboxylate], the “Herbicidal rating ORYSAT (rice tolerance)” value in series [1] (in vivo) is given as 0.0. In addition, the CHEAL rating in series [2] (0.0313 kg/ha) was found to be 7.0; in series [2] (0.0625 kg/ha), 9.0; in series [2] (0.1250 kg/ha), 9.0; in series [2] (0.2500 kg/ha), 9.0. The ORYSAT rating is listed as 0.0 in series [3] (0.0313 kg/ha), 0.0 in series [3] (0.0625 kg/ha), 1.0 in series [3] (0.1250 kg/ha) and 1.0 in series [3] (0.2500 kg/ha). The “CYPSE herbicidal effect rating” value in series [4] (0.0625 kg/ha), in series [4] (0.1250 kg/ha) and in series [4] (0.2500 kg/ha) was 0.0 throughout. Also, the “ECHORC herbicidal effect rating” value in series [5] (0.0625 kg/ha) is recorded as 0.0; in series [5] (0.1250 kg/ha), 3.0; in series [5] (0.2500 kg/ha), 3.0. In addition, the “ORYSAT herbicidal effect rating (rice tolerance)” value in series [6] (in vivo) was 0.0. Further, the ECHCG herbicidal rating in series [7] (rate 0.0158 kg/ha) is 1.0; in series [7] (rate 0.0315 kg/ha), 2.0; in series [7] (rate 0.0630 kg/ha) it was 6.0.
